According to patent US10633348B2, “Methods to treat lymphoplasmacytic lymphoma” (Dana-Farber Cancer Institute, Inc., priority 2013, dated 2020):

How the values were obtained:
Hck-pY410 = assay: PhosFlow; assay type: cell-based; conditions: BCWM.1, Hck-wt and Hck-mu BCWM.1 cells; 0.5 μM and 0.1 μM
ZAK = assay type: cell-based
LYN = assay type: cell-based
BTK = assay type: biochemical
From the text: (§1) The in vitro activity of the compounds described herein in inhibiting TAK1, HCK and other kinases were obtained using an Invitrogen Select Screening assay as known in the art. The IC50 values determined from this assay are shown below.

BTK-pY223 = assay: PhosFlow; assay type: cell-based; conditions: BCWM.1, Hck-wt and Hck-mu BCWM.1 cells; 0.5 μM and 0.1 μM
Description: PhosFlow was performed to detect levels of phosphorylation for BTK-pY223 (BD Biosciences) and Hck-pY410 (Abcam) in BCWM.1 cells, in BCWM cells that stably overexpress HCK (BCWM.1_HCK-wt) and in BCWM.1 cells that stably overexpress the T338M mutant of HCK (BCWM.1_HCK-mu). Cells were fixed with BD Phosflow Fix Buffer I (BD Biosciences) at 37° C. for 10 min, then washed twice with BD Phosflow Perm/Wash Buffer I (BD Biosciences). Cells were suspended in BD Phosflow Perm/Wash Buffer I at 10 million/ml and antibodies aliquoted to flow tubes with 100 μl cells. Cells were incubated at room temperature for 30 min in the dark. Cells were washed twice with BD Phosflow Perm/Wash Buffer I before performing flow analysis using a BD™ FACSCanto II flow cytometer.

FYN = assay: KiNativ kinase profiling in A375 cells; assay type: cell-based; conditions: 1 μM; A375 cells
[1] = tested on: WM patient primary lymphoplasmacytic cells (LPCs); assay: Apoptosis analysis (Annexin V/Propidium iodide); assay type: cell-based; conditions: for Apoptosis (%): 24 hours
Description: WM cells were treated with and without the compounds described herein. Cells were incubated at 37° C. with 0.01˜4 uM of the compounds described herein. Apoptosis analysis was performed using Annexin V/Propidium iodide staining with the Apoptosis Detection Kit I (BD Pharmingen). 1×10^6/well cells were treated in 24 well plates for ˜24 hours with inhibitors or corresponding controls. A minimum of 10,000 events were acquired using a BD™ FACSCanto II flow cytometer and analyzed with BD FACS DIVA Software.
Apoptosis analysis of WM patient primary lymphoplasmacytic cells (LPCs) was preformed following A-5 and A-14 treatment of Bone marrow mononuclear cells (BMMC) from WM patients for 24 hours. Apoptosis analysis was performed using Annexin V/Propidium iodide staining with the Apoptosis Detection Kit I (BD Pharmingen) in CD19-APC-cy7 antibody (BD Pharmingen) gated LPCs population.

OCI-Ly3 = assay: CellTiter-Glo cell viability assay; assay type: cell-based; conditions: Homo sapiens, OCI-Ly3, 72 h
Description: (§2) CellTiter-Glo® Luminescent cell viability assay (Promega) was used to assess cell survival following treatment with the compounds described. Cells were seeded into 384 well plates with the EL406 Combination Washer Dispenser (BioTek Instruments, Inc.) and the compounds were injected into the cells culture media with the JANUS Automated Workstation (PerkinElmer Inc.). Cells were treated with a series diluted inhibitors (20˜0.04 μM) for 72 hours at 37° C. Luminescent measurement is performed using the 2104 Envision® Multilabel Reader (PerkinElmer Inc.).

OCI-Ly7 = assay: CellTiter-Glo cell viability assay; assay type: cell-based; conditions: Homo sapiens, 72 hours
Description: as §2

BCWM.1 = assay: CellTiter-Glo cell viability assay; assay type: cell-based
Description: as §2

TMD8 = assay: CellTiter-Glo cell viability assay; assay type: cell-based; conditions: Homo sapiens, 72 hours
Description: as §2

Abl = assay: KiNativ kinase profiling in A375 cells; assay type: cell-based; conditions: 1 μM; A375 cells
TAK1 = assay type: biochemical
HCK = assay type: biochemical; conditions: read-out: HCK IC50 (nM) Inv
From the text: as §1

[2] = Isobolograms, synergy with a BTK inhibitor; conditions: FIG. 1
From the text: Points below the 1 to 1 line connecting the X and Y axes are ‘synergistic’, points near the line are ‘additive’, and points above it are antagonistic.

MWCL-1 = assay: CellTiter-Glo cell viability assay; assay type: cell-based; conditions: 72 h
Description: as §2

Ramos = assay: CellTiter-Glo cell viability assay; assay type: cell-based; conditions: Homo sapiens, 72 h
Description: as §2

OCI-Ly19 = assay: CellTiter-Glo cell viability assay; assay type: cell-based; conditions: Homo sapiens, OCI-LY19, 72 h
Description: as §2

CCN1CCN(Cc2ccc(NC(=O)c3ccc(C)c(Oc4cc(Nc5cnn(C)c5)ncn4)c3)cc2C(F)(F)F)CC1 [(A-5), N-(4-((4-ethylpiperazin-1-yl)methyl)-3-(trifluoromethyl)phenyl)-4-methyl-3-((6-((1-methyl-1H-pyrazol-4-yl)amino)pyrimidin-4-yl)oxy)benzamide]
Hck phosphorylation (Hck-pY410): inhibit | ZAK inhibition (ZAK): 75.7% | LYN inhibition (LYN): 87.8% | IC50 (BTK): > 10000 nM | BTK phosphorylation (BTK-pY223): inhibit | FYN inhibition (FYN): 71.2% | Apoptosis (%) ([1]; Patient 1, 1.0 μM): 57.7% | Apoptosis (%) ([1]; Patient 2, 1.0 μM): 28.9% | Apoptosis (%) ([1]; Patient 3, 1.0 μM): 29.48% | Apoptosis (%) ([1]; Patient 4, 1.0 μM): 48.56% | Apoptosis (%) ([1]; Patient 5, 0.5 μM): 23.25% | Apoptosis (%) ([1]; Patient 5, 1.0 μM): 30.5% | Apoptosis (%) ([1]; Patient 6, 1.0 μM): 17.82% | Apoptosis (%) ([1]; Patient 7, 0.5 μM): 17.23% | Apoptosis (%) ([1]; Patient 7, 1.0 μM): 18.2% | Apoptosis (%) ([1]; Patient 8, 0.5 μM): 11.04% | Apoptosis (%) ([1]; Patient 8, 1.0 μM): 17.31% | Apoptosis (%) ([1]; Patient 10, 0.2 μM): 21.5% | Apoptosis (%) ([1]; Patient 10, 1.0 μM): 28.7% | Apoptosis (%) ([1]; Patient 11, 0.2 μM): 30.2% | Apoptosis (%) ([1]; Patient 11, 1.0 μM): 47% | apoptosis compared with DMSO control ([1]; WM patient primary LPCs): induced significant apoptosis | EC50 (OCI-Ly3): 4710 nM | EC50 (OCI-Ly7): 655 nM | EC50 (BCWM.1; 72 hours): 72 nM | EC50 (BCWM.1; BCWM1, 72 h): 51 nM | EC50 (TMD8): 132 nM | Abl inhibition (Abl): > 90%

CCN1CCN(Cc2ccc(NC(=O)c3ccc(C)c(Oc4cc(Nc5cncnc5)ncn4)c3)cc2C(F)(F)F)CC1 [(A-8), N-(4-((4-ethylpiperazin-1-yl)methyl)-3-(trifluoromethyl)phenyl)-4-methyl-3-((6-(pyrimidin-5-ylamino)pyrimidin-4-yl)oxy)benzamide]
IC50 (TAK1): 487 nM | IC50 (HCK): 889 nM

C=CC(=O)Nc1cc(Oc2cc(C(=O)Nc3ccc(CN4CCN(CC)CC4)c(C(F)(F)F)c3)ccc2C)ncn1 [(A-17), 3-((6-acrylamidopyrimidin-4-yl)oxy)-N-(4-((4-ethylpiperazin-1-yl)methyl)-3-(trifluoromethyl)phenyl)-4-methylbenzamide]
IC50 (BTK): 3380 nM | synergy between compound and a BTK inhibitor (isobolograms) [2]: synergy | EC50 (MWCL-1): 202 nM | EC50 (Ramos): 389 nM | EC50 (OCI-Ly19): 188 nM | EC50 (OCI-Ly3): 247 nM | EC50 (BCWM.1; BCWM1, 72 h): 8 nM
